Measurements taken from patent publication US12310975B2, “Modulators of BCL6 proteolysis and associated methods of use” (Arvinas Operations, Inc., priority 2019, dated 2025).

Columns and labels:
BCL6 [1] = biological target: T1, BCL6 (Homo sapiens (Human), UniProt P41182); experiment: Immunofluorescence high content imaging of BCL6 degradation in T47D cells; type: cell-based; conditions: T47D
Outline: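 Seed T47D in RPMI1640-10% FBS to reach ~70-90% confluence at endpoint; add degrader next day (11-point 3-fold series, top 0.1 or 1 μM final) for 3 days. Then fix, permeabilize, stain BCL6 with nuclear Hoechst, and image.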

BCL6 [2] = biological target: T1, BCL6; experiment: BCL6 TR-FRET assay (BCL6-Avitag-Biotin / BCoR-Cy5 peptide); type: binding; conditions: read-out: IC50
Outline: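 After 30 min room-temperature preincubation of compound titrations with 2 nM biotinylated BCL6-Avitag, 100 nM Cy5-labelled BCoR peptide plus 2 nM Eu-streptavidin were added and TR-FRET read 2 h later. HEPES pH 7.5/125 mM NaCl buffer with Triton X, glutathione (or DTT) and BSA.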

| Dmax (BCL6 [1]) [%] | IC50 (BCL6 [2]) [nM] | SMILES |
| --- | --- | --- |
| 50 to 70 | < 10 | CNC(=O)COc1cc2cc(Nc3nc(N4CCC(OC5CN(C6CCN(c7cccc8c7C(=O)N(C7CCC(=O)NC7=O)C8=O)CC6)C5)CC4)ncc3Cl)ccc2n(C(C)C)c1=O (centres unmarked) [compound 525, 2-({6-[(5-chloro-2-{4-[(1-{1-[2-(2,6-dioxopiperidin-3-yl)-1,3-dioxo-2,3-dihydro-1H-isoindol-4-yl]piperidin-4-yl}azetidin-3-yl)oxy]piperidin-1-yl}pyrimidin-4-yl)amino]-2-oxo-1-(propan-2-yl)-1,2-dihydroquinolin-3-yl}oxy)-N-methylacetamide] |
| 50 to 70 | < 10 | CNC(=O)COc1cc2cc(Nc3nc(N4CCC(OC5CN(C6CCN(c7ccc8c(c7)C(=O)N(C7CCC(=O)NC7=O)C8=O)CC6)C5)CC4)ncc3Cl)ccc2n(C(C)C)c1=O (centres unmarked) [compound 526, 2-({6-[(5-chloro-2-{4-[(1-{1-[2-(2,6-dioxopiperidin-3-yl)-1,3-dioxo-2,3-dihydro-1H-isoindol-5-yl]piperidin-4-yl}azetidin-3-yl)oxy]piperidin-1-yl}pyrimidin-4-yl)amino]-2-oxo-1-(propan-2-yl)-1,2-dihydroquinolin-3-yl}oxy)-N-methylacetamide] |
| 50 to 70 | < 10 | CNC(=O)COc1cc2cc(Nc3nc(N4CCC(N5CCC6(CCN(c7cccc8c7C(=O)N(C7CCC(=O)NC7=O)C8=O)CC6)C5)CC4)ncc3Cl)ccc2n(C(C)C)c1=O (centres unmarked) [compound 527, 2-[(6-{[5-chloro-2-(4-{8-[2-(2,6-dioxopiperidin-3-yl)-1,3-dioxo-2,3-dihydro-1H-isoindol-4-yl]-2,8-diazaspiro[4.5]decan-2-yl}piperidin-1-yl)pyrimidin-4-yl]amino}-2-oxo-1-(propan-2-yl)-1,2-dihydroquinolin-3-yl)oxy]-N-methylacetamide] |
| 50 to 70 | < 10 | CNC(=O)COc1cc2cc(Nc3nc(N4CCN(CC5CC6(C5)CN(c5cccc7c5C(=O)N(C5CCC(=O)NC5=O)C7=O)C6)CC4)ncc3Cl)ccc2n(C(C)C)c1=O (centres unmarked) [compound 529, 2-{[6-({5-chloro-2-[4-({2-[2-(2,6-dioxopiperidin-3-yl)-1,3-dioxo-2,3-dihydro-1H-isoindol-4-yl]-2-azaspiro[3.3]heptan-6-yl}methyl)piperazin-1-yl]pyrimidin-4-yl}amino)-2-oxo-1-(propan-2-yl)-1,2-dihydroquinolin-3-yl]oxy}-N-methylacetamide] |
| ≥ 70 | < 10 | CNC(=O)COc1cc2cc(Nc3nc(N4CCC5(CCN(CC6CCN(c7cccc8c7C(=O)N(C7CCC(=O)NC7=O)C8=O)CC6)CC5)CC4)ncc3Cl)ccc2n(C(C)C)c1=O (centres unmarked) [compound 533, 2-{[6-({5-chloro-2-[9-({1-[2-(2,6-dioxopiperidin-3-yl)-1,3-dioxo-2,3-dihydro-1H-isoindol-4-yl]piperidin-4-yl}methyl)-3,9-diazaspiro[5.5]undecan-3-yl]pyrimidin-4-yl}amino)-2-oxo-1-(propan-2-yl)-1,2-dihydroquinolin-3-yl]oxy}-N-methylacetamide] |
| ≥ 70 | < 10 | CNC(=O)COc1cc2cc(Nc3nc(N4CCC(CN5CCC6(CCN(c7ccc8c(c7)C(=O)N(C7CCC(=O)NC7=O)C8=O)C6)C5)CC4)ncc3Cl)ccc2n(C(C)C)c1=O (centres unmarked) [compound 534, 2-{[6-({5-chloro-2-[4-({7-[2-(2,6-dioxopiperidin-3-yl)-1,3-dioxo-2,3-dihydro-1H-isoindol-5-yl]-2,7-diazaspiro[4.4]nonan-2-yl}methyl)piperidin-1-yl]pyrimidin-4-yl}amino)-2-oxo-1-(propan-2-yl)-1,2-dihydroquinolin-3-yl]oxy}-N-methylacetamide] |
| < 50 | < 10 | CNC(=O)COc1cc2cc(Nc3nc(N4CCN(C[C@H]5C[C@H](N6CCN(c7cccc8c7C(=O)N(C7CCC(=O)NC7=O)C8=O)CC6)C5)CC4)ncc3Cl)ccc2n(C(C)C)c1=O (some centres unmarked) [compound 537, 2-[(6-{[5-chloro-2-(4-{[(1r,3r)-3-{4-[2-(2,6-dioxopiperidin-3-yl)-1,3-dioxo-2,3-dihydro-1H-isoindol-4-yl]piperazin-1-yl}cyclobutyl]methyl}piperazin-1-yl)pyrimidin-4-yl]amino}-2-oxo-1-(propan-2-yl)-1,2-dihydroquinolin-3-yl)oxy]-N-methylacetamide] |
| ≥ 70 | < 10 | CNC(=O)COc1cc2cc(Nc3nc(N4CCC(CN5CC(N6CCC(c7ccc8c(c7)C(=O)N(C7CCC(=O)NC7=O)C8=O)CC6)C5)CC4)ncc3Cl)ccc2n(C(C)C)c1=O (centres unmarked) [compound 538, 2-({6-[(5-chloro-2-{4-[(3-{4-[2-(2,6-dioxopiperidin-3-yl)-1,3-dioxo-2,3-dihydro-1H-isoindol-5-yl]piperidin-1-yl}azetidin-1-yl)methyl]piperidin-1-yl}pyrimidin-4-yl)amino]-2-oxo-1-(propan-2-yl)-1,2-dihydroquinolin-3-yl}oxy)-N-methylacetamide] |
| 50 to 70 | < 10 | CNC(=O)COc1cc2cc(Nc3nc(N4CCN(CC5CCC6(CC5)CN(c5c(F)ccc7c5C(=O)N(C5CCC(=O)NC5=O)C7=O)C6)CC4)ncc3Cl)ccc2n(C(C)C)c1=O (centres unmarked) [compound 539, 2-{[6-({5-chloro-2-[4-({2-[2-(2,6-dioxopiperidin-3-yl)-5-fluoro-1,3-dioxo-2,3-dihydro-1H-isoindol-4-yl]-2-azaspiro[3.5]nonan-7-yl}methyl)piperazin-1-yl]pyrimidin-4-yl}amino)-2-oxo-1-(propan-2-yl)-1,2-dihydroquinolin-3-yl]oxy}-N-methylacetamide] |
| ≥ 70 | < 10 | CNC(=O)COc1cc2cc(Nc3nc(N4CCN(CC5CCC6(CC5)CN(c5cc(F)cc7c5C(=O)N(C5CCC(=O)NC5=O)C7=O)C6)CC4)ncc3Cl)ccc2n(C(C)C)c1=O (centres unmarked) [compound 540, 2-{[6-({5-chloro-2-[4-({2-[2-(2,6-dioxopiperidin-3-yl)-6-fluoro-1,3-dioxo-2,3-dihydro-1H-isoindol-4-yl]-2-azaspiro[3.5]nonan-7-yl}methyl)piperazin-1-yl]pyrimidin-4-yl}amino)-2-oxo-1-(propan-2-yl)-1,2-dihydroquinolin-3-yl]oxy}-N-methylacetamide] |
| ≥ 70 | < 10 | CNC(=O)COc1cc2cc(Nc3nc(N4CCN(CC5CCC6(CC5)CN(c5ccc(F)c7c5C(=O)N(C5CCC(=O)NC5=O)C7=O)C6)CC4)ncc3Cl)ccc2n(C(C)C)c1=O (centres unmarked) [compound 541, 2-{[6-({5-chloro-2-[4-({2-[2-(2,6-dioxopiperidin-3-yl)-7-fluoro-1,3-dioxo-2,3-dihydro-1H-isoindol-4-yl]-2-azaspiro[3.5]nonan-7-yl}methyl)piperazin-1-yl]pyrimidin-4-yl}amino)-2-oxo-1-(propan-2-yl)-1,2-dihydroquinolin-3-yl]oxy}-N-methylacetamide] |

| SMILES | Dmax (BCL6 [1]) [%] | IC50 (BCL6 [2]) [nM] |
| --- | --- | --- |
| CNC(=O)COc1cc2cc(Nc3nc(N4CCC(O[C@H]5C[C@H](N6CCN(c7ccc8c(c7)C(=O)N(C7CCC(=O)NC7=O)C8=O)CC6)C5)CC4)ncc3Cl)ccc2n(C(C)C)c1=O (some centres unmarked) [compound 531, 2-({6-[(5-chloro-2-{4-[(1r,3r)-3-{4-[2-(2,6-dioxopiperidin-3-yl)-1,3-dioxo-2,3-dihydro-1H-isoindol-5-yl]piperazin-1-yl}cyclobutoxy]piperidin-1-yl}pyrimidin-4-yl)amino]-2-oxo-1-(propan-2-yl)-1,2-dihydroquinolin-3-yl}oxy)-N-methylacetamide] | < 50 | < 10 |
| CNC(=O)COc1cc2cc(Nc3nc(N4CCC(O[C@H]5C[C@H](N6CCC(c7ccc8c(c7)C(=O)N(C7CCC(=O)NC7=O)C8=O)CC6)C5)CC4)ncc3Cl)ccc2n(C)c1=O (some centres unmarked) [compound 536, 2-({6-[(5-chloro-2-{4-[(1r,3r)-3-{4-[2-(2,6-dioxopiperidin-3-yl)-1,3-dioxo-2,3-dihydro-1H-isoindol-5-yl]piperidin-1-yl}cyclobutoxy]piperidin-1-yl}pyrimidin-4-yl)amino]-1-methyl-2-oxo-1,2-dihydroquinolin-3-yl}oxy)-N-methylacetamide] | ≥ 70 | < 10 |
